We go through 1 compound from ChEMBL document CHEMBL4325898, “Recent advances in the development of neuroprotective agents and therapeutic targets in the treatment of cerebral ischemia” (Eur J Med Chem, 2019).

This experiment relates to Felis catus. The experiment can be described thus: Reduction in infarct volume in cat at 0.5 mg/kg administered as bolus dose at 15 mins before middle cerebral artery occlusion followed by infusion of 0.14 mg/kg/hr measured after 6 hrs. Type of experiment: functional. On the set-up: scale not given: the % may be the effect or the level left.

The compound `C[C@]12N[C@H](Cc3ccccc31)c1ccccc12.O=C(O)/C=C/C(=O)O` yielded an Activity of 75%.
